# Where two headings read alike, the source gives them in different places.
# Tests used:
# Format in all cases: cell-based
# [1] = test system: Escherichia coli (carbapenem-resistant clinical isolate; ATCC25922); test: MIC by micro broth dilution (CLSI), Escherichia coli; conditions: Escherichia coli
# Text: (§1) The test bacteria were one strain of clinically isolated carbapenem-resistant Escherichia coli, two strains of carbapenem-resistant Acinetobacter baumannii, two strains of methicillin-resistant Staphylococcus aureus, two strains of sensitive Staphylococcus aureus, and 7 strains of Klebsiella pneumoniae. Duplicate strains isolated from the same patient were eliminated. There were also […] quality control strains Escherichia coli ATCC25922, Acinetobacter baumannii ATCC19606, Staphylococcus aureus ATCC29213, Klebsiella pneumoniae ATCC BAA-1705, ATCC 43816, ATCC BAA-2472, ATCC-BAA-1898, ATCC-BAA-1899, NCTC 13440 and ATCC-BAA-2470. There were 24 strains in total.
# (§2) According to the recommendations of relevant documents of the American Clinical and Laboratory Standards Institute (CLSI), the micro broth dilution method was used to determine the MIC of the compounds of the present invention against clinically isolated strains. • 3.1 Formulation of antibacterial drug: All the compounds of the present invention were dissolved in DMSO. The drug concentration range was 128 mg/L to 0.06 mg/L. • 3.2 Culture medium: The drug susceptibility test used cation adjusted Mueller-Hinton broth (CAMHB). • 3.3 Amount of inoculum: The test bacteria cultured overnight were adjusted to 0.5 McFarland turbidity by the direct colony suspension method, and diluted 100 folds, the final inoculum amount was 10^5 CFU/mL. • 3.4 Culture conditions: The test bacteria were cultured at 35±2° C. for 20 hours in air.
# (§3) The drug susceptibility test results were interpretated by reference to CLSI 2019 M100 29th edition criteria.
# (§4) The quality control strains of the drug susceptibility test were Escherichia coli ATCC 25922, Acinetobacter baumannii ATCC 19606, Staphylococcus aureus ATCC 29213, Klebsiella pneumoniae ATCC BAA-1705, ATCC 43816, ATCC BAA-2472, ATCC-BAA-1898, ATCC-BAA-1899, NCTC 13440 and ATCC-BAA-2470.
# (§5) The results of drug susceptibility test were statistically analyzed by WHONET software (version 5.6).
# [2] = test system: Acinetobacter baumannii (carbapenem-resistant clinical isolates; ATCC19606); test: MIC by micro broth dilution (CLSI), Acinetobacter baumannii; conditions: Acinetobacter baumannii; for MIC50 / MIC90: ATCC19606
# Text: as §1, §2, §3, §4, §5
# [3] = test system: Staphylococcus aureus (methicillin-resistant and sensitive clinical isolates; ATCC29213); test: MIC by micro broth dilution (CLSI), Staphylococcus aureus
# Text: as §1, §2, §3, §4, §5
# [4] = ATCC25922, Clinical strain, read-out: MIC50
# [5] = ATCC25922, Clinical strain, read-out: MIC90
# [6] = Standard strain ATCC25922, read-out: MIC
# [7] = Clinical strain, read-out: MIC50
# [8] = Clinical strain, read-out: MIC90
# [9] = Standard strain ATCC19606, read-out: MIC
# [10] = Standard strain ATCC29213, read-out: MIC
# [11] = clinical strains, micro broth dilution, CAMHB, 35±2° C., 20 hours, read-out: MIC50 Escherichia coli Clinical strain
# [12] = clinical strains, micro broth dilution, CAMHB, 35±2° C., 20 hours, read-out: MIC90 Escherichia coli Clinical strain
# [13] = standard strain ATCC25922, micro broth dilution, CAMHB, 35±2° C., 20 hours, read-out: MIC Escherichia coli Standard strain ATCC25922
# [14] = clinical strains, micro broth dilution, CAMHB, 35±2° C., 20 hours, read-out: MIC50 Acinetobacter baumannii Clinical strain
# [15] = clinical strains, micro broth dilution, CAMHB, 35±2° C., 20 hours, read-out: MIC90 Acinetobacter baumannii Clinical strain
# [16] = standard strain ATCC19606, micro broth dilution, CAMHB, 35±2° C., 20 hours, read-out: MIC Acinetobacter baumannii Standard strain ATCC19606
# [17] = clinical strains, micro broth dilution, CAMHB, 35±2° C., 20 hours, read-out: MIC50 Staphylococcus aureus Clinical strain
# [18] = clinical strains, micro broth dilution, CAMHB, 35±2° C., 20 hours, read-out: MIC90 Staphylococcus aureus Clinical strain
# [19] = standard strain ATCC29213, micro broth dilution, CAMHB, 35±2° C., 20 hours, read-out: MIC Staphylococcus aureus Standard strain ATCC29213
SMILES,"MIC50 [1, 4] [µg/mL]","MIC90 [1, 5] [µg/mL]","MIC [1, 6] [µg/mL]","MIC50 [2, 7] [µg/mL]","MIC90 [2, 8] [µg/mL]","MIC [2, 9] [µg/mL]","MIC50 [3, 7] [µg/mL]","MIC90 [3, 8] [µg/mL]","MIC [3, 10] [µg/mL]","MIC50 [1, 11] [µg/mL]","MIC90 [1, 12] [µg/mL]","MIC [1, 13] [µg/mL]","MIC50 [2, 14] [µg/mL]","MIC90 [2, 15] [µg/mL]","MIC [2, 16] [µg/mL]","MIC50 [3, 17] [µg/mL]","MIC90 [3, 18] [µg/mL]","MIC [3, 19] [µg/mL]"
"O=[N+]([O-])c1cc(Cl)c2c(N3CCCC(F)C3)ccnc2c1O (stereo not drawn) [Example 119, 5-chloro-4-(3-fluoropiperidin-1-yl)-7-nitroquinolin-8-ol]",> 128,> 128,> 128,128,> 128,> 128,16,128,128,,,,,,,,,
"[2H]c1ccnc2c(O)c([N+](=O)[O-])cc(Cl)c12 [Example 120, 5-chloro-7-nitroquinolin-4-d-8-ol]",32,32,16,8,16,8,4,16,8,,,,,,,,,
"O=[N+]([O-])c1cc(Br)c2cccnc2c1O [Example 121, 5-bromo-7-nitroquinolin-8-ol]",,,,,,,,,,128,128,16,16,32,8,4,16,8
"O=[N+]([O-])c1c(F)cc2cccnc2c1O [Example 122, 6-fluoro-7-nitroquinolin-8-ol]",,,,,,,,,,64,64,64,64,64,64,64,64,128
"O=[N+]([O-])c1c(Cl)c(F)c2cccnc2c1O [Example 123, 6-chloro-5-fluoro-7-nitroquinolin-8-ol]",,,,,,,,,,16,32,8,4,8,4,2,4,4
"O=[N+]([O-])c1c(Br)c(F)c2cccnc2c1O [Example 124, 6-bromo-5-fluoro-7-nitroquinolin-8-ol]",,,,,,,,,,16,64,8,4,8,8,4,4,4
"O=[N+]([O-])c1c(F)c(F)c2cccnc2c1O [Example 125, 5,6-difluoro-7-nitroquinolin-8-ol]",,,,,,,,,,16,16,8,8,16,8,8,8,8
